According to patent publication US10435399B2, “HDAC6 inhibitory heterocyclic compound” (TAKEDA PHARMACEUTICAL COMPANY LIMITED, priority 2017, dated 2019):

biological target: T1, HDAC6 enzyme (Homo sapiens, UniProt Q9UBN7); experiment: HDAC6 enzyme inhibitory activity (HDAC-Glo I/II Assay kit); format: biochemical; settings: 10 μM; wells without enzyme = 100% inhibition; read-out: HDAC6 inhibitory rate (%) (10 μM)
T1 construct: transducing full length HDAC6 gene into Sf-9 insect cells; GST; purchased SignalChem; host or cells: Sf-9 insect cells
T1 sequence (Q9UBN7 1-1215): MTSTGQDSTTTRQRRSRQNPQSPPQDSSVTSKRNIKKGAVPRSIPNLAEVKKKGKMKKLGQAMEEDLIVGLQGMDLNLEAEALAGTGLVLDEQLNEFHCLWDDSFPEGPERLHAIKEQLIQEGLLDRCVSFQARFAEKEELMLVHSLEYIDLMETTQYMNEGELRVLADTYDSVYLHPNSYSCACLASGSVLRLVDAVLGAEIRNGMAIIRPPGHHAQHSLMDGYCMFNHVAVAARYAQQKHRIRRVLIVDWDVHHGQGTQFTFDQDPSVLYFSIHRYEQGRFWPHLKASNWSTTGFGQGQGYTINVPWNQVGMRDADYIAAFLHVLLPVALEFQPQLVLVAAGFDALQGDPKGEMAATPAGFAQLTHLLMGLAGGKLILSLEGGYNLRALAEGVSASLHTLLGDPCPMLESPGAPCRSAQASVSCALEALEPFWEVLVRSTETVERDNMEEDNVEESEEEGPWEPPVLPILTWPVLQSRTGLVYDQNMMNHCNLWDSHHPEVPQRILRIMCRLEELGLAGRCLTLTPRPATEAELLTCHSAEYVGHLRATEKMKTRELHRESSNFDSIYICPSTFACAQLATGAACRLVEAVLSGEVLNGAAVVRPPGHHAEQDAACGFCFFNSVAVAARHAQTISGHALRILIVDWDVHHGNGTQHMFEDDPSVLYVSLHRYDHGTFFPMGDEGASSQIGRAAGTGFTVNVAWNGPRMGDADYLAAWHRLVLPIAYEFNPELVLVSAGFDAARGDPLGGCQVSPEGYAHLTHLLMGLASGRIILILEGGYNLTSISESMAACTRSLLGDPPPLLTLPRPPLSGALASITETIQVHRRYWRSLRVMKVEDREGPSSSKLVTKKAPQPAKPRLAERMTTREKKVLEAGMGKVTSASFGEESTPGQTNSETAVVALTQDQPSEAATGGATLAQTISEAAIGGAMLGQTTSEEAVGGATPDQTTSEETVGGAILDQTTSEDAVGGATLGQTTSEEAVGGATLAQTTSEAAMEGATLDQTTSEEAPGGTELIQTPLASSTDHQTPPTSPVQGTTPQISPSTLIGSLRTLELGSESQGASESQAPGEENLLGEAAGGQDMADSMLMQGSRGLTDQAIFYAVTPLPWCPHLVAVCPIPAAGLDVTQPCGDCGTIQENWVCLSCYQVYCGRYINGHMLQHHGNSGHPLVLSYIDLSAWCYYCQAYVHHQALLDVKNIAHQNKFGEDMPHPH
Procedure, shortened: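 Test compound is preincubated 60 min at RT with full-length insect-cell HDAC6 in Tris-HCl pH 7.5 with 135 mM NaCl and 1 mM MgCl2. A 20 min room-temperature HDAC-Glo reaction follows, with luminescent read-out.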

Compound	inhibition at 10 µM [%]
O=C1c2cc(-c3nnc(C(F)F)o3)ccc2CN1c1ccccc1-c1cnc2occc2c1 [Example 303, 6-(5-(difluoromethyl)-1,3,4-oxadiazol-2-yl)-2-(2-(furo-[2,3-b]pyridin-5-yl)phenyl)-isoindolin-1-one]	99
O=C1c2cc(-c3nnc(C(F)F)o3)ccc2CN1c1ccccc1-c1ccc2c(c1)OCC2 [Example 304, 6-(5-(difluoromethyl)-1,3,4-oxadiazol-2-yl)-2-(2-(2,3-dihydro-1-benzofuran-6-yl)phenyl)isoindolin-1-one]	99
O=C1c2cc(-c3nnc(C(F)F)o3)ccc2CN1c1ccccc1-c1cccc(F)c1F [Example 308, 2-(2′,3′-difluorobiphenyl-2-yl)-6-(5-(difluoromethyl)-1,3,4-oxadiazol-2-yl)-isoindolin-1-one]	97
O=C1c2cc(-c3nnc(C(F)F)o3)ccc2CN1c1ccccc1-c1cc(F)ccc1F [Example 309, 2-(2′,5′-difluorobiphenyl-2-yl)-6-(5-(difluoromethyl)-1,3,4-oxadiazol-2-yl)isoindolin-1-one]	97
O=C1c2cc(-c3nnc(C(F)F)o3)ccc2CN1c1ccccc1-c1ccc(F)cc1F [Example 310, 2-(2′,4′-difluorobiphenyl-2-yl)-6-(5-(difluoromethyl)-1,3,4-oxadiazol-2-yl)isoindolin-1-one]	91
CS(=O)(=O)c1cncc(-c2ccccc2N2Cc3ccc(-c4nnc(C(F)F)o4)cc3C2=O)c1 [Example 314, 6-(5-(difluoromethyl)-1,3,4-oxadiazol-2-yl)-2-(2-(5-(methylsulfonyl)pyridin-3-yl)phenyl)isoindolin-1-one]	101
N#CC1(c2ccc(-c3ccccc3N3Cc4ccc(-c5nnc(C(F)F)o5)cc4C3=O)cc2)CC1 [Example 316, 1-(2′-(6-(5-(difluoromethyl)-1,3,4-oxadiazol-2-yl)-1-oxo-1,3-dihydro-2H-isoindol-2-yl)-biphenyl-4-yl)cyclopropane-carbonitrile]	92
COCCOc1ccccc1-c1ccccc1N1Cc2ccc(-c3nnc(C(F)F)o3)cc2C1=O [Example 317, 6-(5-(difluoromethyl)-1,3,4-oxadiazol-2-yl)-2-(2′-(2-methoxyethoxy)biphenyl-2-yl)isoindolin-1-one]	97
O=C1c2cc(-c3nnc(C(F)F)o3)ccc2CN1c1ccccc1-c1cnn(C(F)F)c1 [Example 318, 6-(5-(difluoromethyl)-1,3,4-oxadiazol-2-yl)-2-(2-(1-(difluoromethyl)-1H-pyrazol-4-yl)phenyl)isoindolin-1-one]	98
O=C1c2cc(-c3nnc(C(F)F)o3)ccc2CN1c1ccccc1-c1cnn(C2CCOCC2)c1 [Example 319, 6-(5-(difluoromethyl)-1,3,4-oxadiazol-2-yl)-2-(2-(1-(tetrahydro-2H-pyran-4-yl)-1H-pyrazol-4-yl)phenyl)-isoindolin-1-one]	86
Cn1nc(C(F)(F)F)cc1-c1ccccc1N1Cc2ccc(-c3nnc(C(F)F)o3)cc2C1=O [Example 320, 6-(5-(difluoromethyl)-1,3,4-oxadiazol-2-yl)-2-(2-(1-methyl-3-(trifluoromethyl)-1H-pyrazol-5-yl)phenyl)-isoindolin-1-one]	99
COCCOc1ccc(-c2ccccc2N2Cc3ccc(-c4nnc(C(F)F)o4)cc3C2=O)cc1 [Example 321, 6-(5-(difluoromethyl)-1,3,4-oxadiazol-2-yl)-2-(4′-(2-methoxyethoxy)biphenyl-2-yl)isoindolin-1-one]	98
O=C1c2cc(-c3nnc(C(F)F)o3)ccc2CN1c1ccccc1-c1cnc(OCC(F)(F)F)nc1 [Example 322, 6-(5-(difluoromethyl)-1,3,4-oxadiazol-2-yl)-2-(2-(2-(2,2,2-trifluoroethoxy)-pyrimidin-5-yl)phenyl)-isoindolin-1-one]	23
O=C1c2cc(-c3nnc(C(F)F)o3)ccc2CN1c1ccccc1-c1cnn(Cc2ccccn2)c1 [Example 323, 6-(5-(difluoromethyl)-1,3,4-oxadiazol-2-yl)-2-(2-(1-(pyridin-2-ylmethyl)-1H-pyrazol-4-yl)phenyl)-isoindolin-1-one]	97
O=C(c1cccc(-c2ccccc2N2Cc3ccc(-c4nnc(C(F)F)o4)cc3C2=O)c1)N1CCCC1 [Example 325, 6-(5-(difluoromethyl)-1,3,4-oxadiazol-2-yl)-2-(3′-(pyrrolidin-1-ylcarbonyl)-biphenyl-2-yl)isoindolin-1-one]	100

Other lines, results leading:

inhibition at 10 µM [%]	Compound
106	O=C1c2cc(-c3nnc(C(F)F)o3)ccc2CN1c1ccccc1-c1cccc(F)n1 [Example 301, 6-(5-(difluoromethyl)-1,3,4-oxadiazol-2-yl)-2-(2-(6-fluoropyridin-2-yl)phenyl)-isoindolin-1-one]
100	COc1cccc(-c2ccccc2N2Cc3ccc(-c4nnc(C(F)F)o4)cc3C2=O)n1 [Example 302, 6-(5-(difluoromethyl)-1,3,4-oxadiazol-2-yl)-2-(2-(6-methoxypyridin-2-yl)-phenyl)isoindolin-1-one]
101	O=C1c2cc(-c3nnc(C(F)F)o3)ccc2CN1c1ccccc1-c1cccc(Cl)n1 [Example 305, 2-(2-(6-chloropyridin-2-yl)-phenyl)-6-(5-(difluoro-methyl)-1,3,4-oxadiazol-2-yl)isoindolin-1-one]
101	Cc1cn2cc(-c3ccccc3N3Cc4ccc(-c5nnc(C(F)F)o5)cc4C3=O)ccc2n1 [Example 306, 6-(5-(difluoromethyl)-1,3,4-oxadiazol-2-yl)-2-(2-(2-methylimidazo[1,2-a]-pyridin-6-yl)phenyl)-isoindolin-1-one]
98	O=C1c2cc(-c3nnc(C(F)F)o3)ccc2CN1c1ccccc1-c1ccc(F)c(F)c1 [Example 307, 2-(3′,4′-difluorobiphenyl-2-yl)-6-(5-(difluoromethyl)-1,3,4-oxadiazol-2-yl)-isoindolin-1-one]
99	Cc1ccccc1-c1ccccc1N1Cc2ccc(-c3nnc(C(F)F)o3)cc2C1=O [Example 311, 6-(5-(difluoromethyl)-1,3,4-oxadiazol-2-yl)-2-(2′-methyl-biphenyl-2-yl)isoindolin-1-one]
96	Cc1cccc(-c2ccccc2N2Cc3ccc(-c4nnc(C(F)F)o4)cc3C2=O)c1 [Example 312, 6-(5-(difluoromethyl)-1,3,4-oxadiazol-2-yl)-2-(3′-methyl-biphenyl-2-yl)isoindolin-1-one]
98	Cc1ccc(-c2ccccc2N2Cc3ccc(-c4nnc(C(F)F)o4)cc3C2=O)cc1 [Example 313, 6-(5-(difluoromethyl)-1,3,4-oxadiazol-2-yl)-2-(4′-methyl-biphenyl-2-yl)isoindolin-1-one]
98	O=C1c2cc(-c3nnc(C(F)F)o3)ccc2CN1c1ccccc1-c1cccc(OCC(F)(F)F)c1 [Example 315, 6-(5-(difluoromethyl)-1,3,4-oxadiazol-2-yl)-2-(3′-(2,2,2-trifluoroethoxy)biphenyl-2-yl)isoindolin-1-one]
97	N#CCOc1cccc(-c2ccccc2N2Cc3ccc(-c4nnc(C(F)F)o4)cc3C2=O)c1 [Example 324, ((2′-(6-(5-(difluoromethyl)-1,3,4-oxadiazol-2-yl)-1-oxo-1,3-dihydro-2H-isoindol-2-yl)biphenyl-3-yl)oxy)-acetonitrile]
